Test results as given in ChEMBL document CHEMBL1201862, “PubChem BioAssay data set” (2004).
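These data come from cells grown in 96-well plates and exposed to compound for 48 hours at five concentrations. GI50 = concentration required for 50% inhibition of growth.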 Activity calls are given as the source filed them. Cut-off read from the data, not from the text of the source: active = GI50 up to about 1.1 µM and inactive = higher.

Experiments:
Experiment in all cases: DTP human tumour cell line panel, 48 h
786-0 = system: 786-0
CAKI-1 = system: CAKI-1
CCRF-CEM = system: CCRF-CEM
EKVX = system: EKVX
HOP-92 = system: HOP-92
LOX IMVI = system: LOX IMVI
MDA-MB-435 = system: MDA-MB-435
MOLT-4 = system: MOLT-4
NCI-H226 = system: NCI-H226
NCI-H23 = system: NCI-H23
NCI-H522 = system: NCI-H522
OVCAR-3 = system: OVCAR-3
RXF 393 = system: RXF 393
SF-295 = system: SF-295
SF-539 = system: SF-539
SK-MEL-28 = system: SK-MEL-28
SK-MEL-2 = system: SK-MEL-2
SN12C = system: SN12C
TK-10 = system: TK-10
UO-31 = system: UO-31

Compound | GI50 (786-0) | GI50 (CAKI-1) | GI50 (CCRF-CEM) | GI50 (EKVX) | GI50 (HOP-92) | GI50 (LOX IMVI) | GI50 (MDA-MB-435) | GI50 (MOLT-4) | GI50 (NCI-H226) | GI50 (NCI-H23) | GI50 (NCI-H522) | GI50 (OVCAR-3) | GI50 (RXF 393) | GI50 (SF-295) | GI50 (SF-539) | GI50 (SK-MEL-28) | GI50 (SK-MEL-2) | GI50 (SN12C) | GI50 (TK-10) | GI50 (UO-31)
Cc1ccc2nc3ccccc3c(C3C4C(=O)N(c5ccc(Br)cc5Cl)C(=O)C4ON3C(C(N)=O)c3ccccc3)c2c1 (centres undefined) | 20.8 µM (inactive) | 4.9 µM (inactive) | 8.13 µM (inactive) | 6.56 µM (inactive) | > 25 µM (inactive) | 22.8 µM (inactive) | 11.1 µM (inactive) | 8.73 µM (inactive) | 17.2 µM (inactive) | 0.321 µM (active) | 13.6 µM (inactive) | > 25 µM (inactive) | 13.3 µM (inactive) | > 25 µM (inactive) | 11.8 µM (inactive) | > 25 µM (inactive) | 18.1 µM (inactive) | 5.47 µM (inactive) | > 25 µM (inactive) | 7.41 µM (inactive)
COc1cc2c(cc1OC)[C@H]1C(=O)c3cc4c(cc3[C@H]1N(C)C2=O)OCO4 | 4.41 µM (inactive) | 3.13 µM (inactive) | 0.366 µM (active) | > 100 µM (inactive) | 22.2 µM (inactive) | 1.5 µM (inactive) | 16.6 µM (inactive) | 0.3 µM (active) | 1.81 µM (inactive) | 5.2 µM (inactive) | 1.06 µM (active) | 19.2 µM (inactive) | 21.8 µM (inactive) | 2.35 µM (inactive) | 3.94 µM (inactive) | > 100 µM (inactive) | > 100 µM (inactive) | 2.83 µM (inactive) | > 100 µM (inactive) | 1.42 µM (inactive)
Cc1c(CCCl)c(Cl)n2c(nc3ccccc32)c1C#N | 0.463 µM (active) | 0.597 µM (active) | 0.045 µM (active) | 3.21 µM (inactive) | 1.15 µM (inactive) | 0.281 µM (active) | 0.796 µM (active) | 0.172 µM (active) | 1.38 µM (inactive) | 0.904 µM (active) | 0.432 µM (active) | 1.35 µM (inactive) | 0.787 µM (active) | 1.31 µM (inactive) | 0.681 µM (active) | 1.94 µM (inactive) | 1.06 µM (active) | 0.423 µM (active) | 1.61 µM (inactive) | 1.28 µM (inactive)
Nc1nc(Nc2ccccc2)c2[nH]cnc2n1 | > 100 µM (inactive) | 49.2 µM (inactive) | 50.7 µM (inactive) | > 100 µM (inactive) | 32.2 µM (inactive) | 77.6 µM (inactive) | > 100 µM (inactive) | 38.9 µM (inactive) | 40.6 µM (inactive) | > 100 µM (inactive) | 65.5 µM (inactive) | 89.9 µM (inactive) | > 100 µM (inactive) | > 100 µM (inactive) | > 100 µM (inactive) | > 100 µM (inactive) | 66.2 µM (inactive) | > 100 µM (inactive) | 46.9 µM (inactive) | 34.8 µM (inactive)
COc1ccc(N2C(=O)[C@H]3[C@H]4CC(C(C)(C)C)CC[C@H]4c4c(n(C)c5ccccc45)[C@H]3C2=O)cc1 (some centres undefined) | > 100 µM (inactive) | > 100 µM (inactive) | > 100 µM (inactive) | > 46.5 µM (inactive) | > 100 µM (inactive) | > 100 µM (inactive) | > 100 µM (inactive) | > 100 µM (inactive) | > 100 µM (inactive) | > 100 µM (inactive) | > 10 µM (inactive) | > 100 µM (inactive) | > 23.7 µM (inactive) | > 100 µM (inactive) | 32.4 µM (inactive) | > 100 µM (inactive) | > 4.65 µM (inactive) | > 56.2 µM (inactive) | > 10 µM (inactive) | > 100 µM (inactive)
C1C2CC3CC1CC(c1nn4c(C56CC7CC(CC(C7)C5)C6)nnc4s1)(C2)C3 | > 100 µM (inactive) | > 100 µM (inactive) | > 100 µM (inactive) | > 100 µM (inactive) | > 100 µM (inactive) | > 100 µM (inactive) | > 100 µM (inactive) | > 100 µM (inactive) | > 100 µM (inactive) | > 100 µM (inactive) | > 100 µM (inactive) | > 100 µM (inactive) | > 100 µM (inactive) | > 100 µM (inactive) | > 100 µM (inactive) | > 100 µM (inactive) | > 100 µM (inactive) | > 100 µM (inactive) | > 100 µM (inactive) | > 100 µM (inactive)
N#Cc1c(N)c2c(c(-c3ccccc3)c1-c1ccccc1)C(=O)N(Nc1ccccc1)C2=O | 40.6 µM (inactive) | 63.1 µM (inactive) | 31.6 µM (inactive) | 42.4 µM (inactive) | 48.1 µM (inactive) | 16.9 µM (inactive) | 68.5 µM (inactive) | 27.4 µM (inactive) | 37.3 µM (inactive) | – | 58.6 µM (inactive) | 21.7 µM (inactive) | 19.3 µM (inactive) | 41.5 µM (inactive) | 35.8 µM (inactive) | 46.6 µM (inactive) | 30.1 µM (inactive) | 30.7 µM (inactive) | 42.1 µM (inactive) | 24.7 µM (inactive)
